According to BindingDB's records for doi:10.3109/14756366.2013.804072 (University of Calgary, 2014):

Columns and labels:
Experiment in all cases: CA Inhibition Assay
Conditions in all cases: pH 7.5; 25 °C
[1] = target: Carbonic anhydrase 14 (Homo sapiens, UniProt Q9ULX7)
Method: (§1) An Applied Photophysics stopped-flow instrument has been used for assaying the CA catalysed CO2 hydration activity. […] The CO2 concentrations ranged from 1.7 to 17 mM for the determination of the kinetic parameters and inhibition constants. […] The uncatalyzed rates were determined in the same manner and subtracted from the total observed rates. Stock solutions of inhibitor (0.1 mM) were prepared in distilled deionized water and dilutions up to 0.01nM were done thereafter with distilled-deionized water.

[2] = target: Carbonic anhydrase 1 (Homo sapiens, UniProt P00915)
Method: as §1

[3] = target: Carbonic anhydrase 12 (Homo sapiens, UniProt O43570)
Method: as §1

[4] = target: Carbonic anhydrase 13 (Homo sapiens, UniProt Q8N1Q1)
Method: as §1

[5] = target: Carbonic anhydrase 2 (Homo sapiens, UniProt P00918)
Method: as §1

[6] = target: Carbonic anhydrase 3 (Homo sapiens, UniProt P07451)
Chain of Carbonic anhydrase 3 (P07451 whole entry): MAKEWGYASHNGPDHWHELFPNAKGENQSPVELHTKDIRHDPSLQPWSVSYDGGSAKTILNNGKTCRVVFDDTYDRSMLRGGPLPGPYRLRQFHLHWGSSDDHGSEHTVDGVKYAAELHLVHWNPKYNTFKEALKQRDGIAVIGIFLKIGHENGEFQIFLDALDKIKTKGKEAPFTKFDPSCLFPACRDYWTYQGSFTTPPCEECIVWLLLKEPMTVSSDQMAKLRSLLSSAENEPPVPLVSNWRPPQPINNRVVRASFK
Method: as §1

[7] = target: Carbonic anhydrase 4 (Homo sapiens, UniProt P22748)
Chain of Carbonic anhydrase 4 (P22748 whole entry): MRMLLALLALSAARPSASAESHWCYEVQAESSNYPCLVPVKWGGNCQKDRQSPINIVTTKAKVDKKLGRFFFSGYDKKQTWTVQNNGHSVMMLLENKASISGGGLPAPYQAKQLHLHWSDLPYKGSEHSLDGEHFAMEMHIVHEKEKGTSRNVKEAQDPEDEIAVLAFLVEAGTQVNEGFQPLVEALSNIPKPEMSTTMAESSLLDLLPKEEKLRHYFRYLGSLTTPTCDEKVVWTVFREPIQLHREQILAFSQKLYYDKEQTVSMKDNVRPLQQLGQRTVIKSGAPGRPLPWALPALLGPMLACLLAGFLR
Method: as §1

[8] = target: Carbonic anhydrase 5A, mitochondrial (Homo sapiens, UniProt P35218)
Chain of Carbonic anhydrase 5A, mitochondrial (P35218 whole entry): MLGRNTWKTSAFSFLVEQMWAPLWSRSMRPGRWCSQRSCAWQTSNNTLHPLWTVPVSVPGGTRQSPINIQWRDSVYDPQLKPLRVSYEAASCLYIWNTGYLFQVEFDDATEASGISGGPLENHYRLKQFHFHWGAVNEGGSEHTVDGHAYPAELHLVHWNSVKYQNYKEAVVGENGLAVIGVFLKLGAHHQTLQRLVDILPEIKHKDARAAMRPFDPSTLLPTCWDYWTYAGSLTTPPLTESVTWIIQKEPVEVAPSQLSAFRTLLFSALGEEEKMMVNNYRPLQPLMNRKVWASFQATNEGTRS
Method: as §1

[9] = target: Carbonic anhydrase 5B, mitochondrial (Homo sapiens, UniProt Q9Y2D0)
Chain of Carbonic anhydrase 5B, mitochondrial (Q9Y2D0 whole entry): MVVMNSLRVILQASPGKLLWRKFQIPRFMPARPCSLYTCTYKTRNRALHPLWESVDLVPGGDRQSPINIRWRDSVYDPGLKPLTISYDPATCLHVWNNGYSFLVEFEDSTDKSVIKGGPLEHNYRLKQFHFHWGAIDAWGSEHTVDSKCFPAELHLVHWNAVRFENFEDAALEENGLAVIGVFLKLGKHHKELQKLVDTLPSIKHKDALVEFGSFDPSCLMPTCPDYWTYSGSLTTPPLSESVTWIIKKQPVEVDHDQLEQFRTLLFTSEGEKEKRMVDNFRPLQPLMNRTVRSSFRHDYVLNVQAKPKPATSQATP
Method: as §1

[10] = target: Carbonic anhydrase 6 (Homo sapiens, UniProt P23280)
Chain of Carbonic anhydrase 6 (P23280 whole entry): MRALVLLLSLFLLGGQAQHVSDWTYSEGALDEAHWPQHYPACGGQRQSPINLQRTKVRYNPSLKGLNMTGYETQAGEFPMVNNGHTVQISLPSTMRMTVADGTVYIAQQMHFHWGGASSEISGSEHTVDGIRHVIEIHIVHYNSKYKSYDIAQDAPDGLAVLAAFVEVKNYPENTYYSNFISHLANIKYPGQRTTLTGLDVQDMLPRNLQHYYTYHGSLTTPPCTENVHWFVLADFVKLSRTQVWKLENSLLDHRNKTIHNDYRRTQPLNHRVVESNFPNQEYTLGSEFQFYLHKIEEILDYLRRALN
Method: as §1

Chain of Carbonic anhydrase 14 (Q9ULX7 whole entry): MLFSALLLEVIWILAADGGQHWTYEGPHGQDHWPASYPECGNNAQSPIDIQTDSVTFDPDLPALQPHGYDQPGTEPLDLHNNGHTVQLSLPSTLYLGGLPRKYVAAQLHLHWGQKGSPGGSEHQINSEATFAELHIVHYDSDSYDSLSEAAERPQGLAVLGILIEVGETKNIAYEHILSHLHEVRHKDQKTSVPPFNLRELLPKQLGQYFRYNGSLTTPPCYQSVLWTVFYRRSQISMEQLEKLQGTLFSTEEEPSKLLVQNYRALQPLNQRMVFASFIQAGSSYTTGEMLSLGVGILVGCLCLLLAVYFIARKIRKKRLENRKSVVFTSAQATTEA
Chain of Carbonic anhydrase 13 (Q8N1Q1 whole entry): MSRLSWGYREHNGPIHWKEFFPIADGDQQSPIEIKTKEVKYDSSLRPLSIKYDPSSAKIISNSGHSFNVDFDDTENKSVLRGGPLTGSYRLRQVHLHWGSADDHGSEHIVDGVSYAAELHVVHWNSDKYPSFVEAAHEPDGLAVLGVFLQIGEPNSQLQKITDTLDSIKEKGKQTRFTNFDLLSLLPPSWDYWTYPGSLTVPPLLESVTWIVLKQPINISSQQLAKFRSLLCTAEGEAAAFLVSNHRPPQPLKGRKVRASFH
Chain of Carbonic anhydrase 12 (O43570 whole entry): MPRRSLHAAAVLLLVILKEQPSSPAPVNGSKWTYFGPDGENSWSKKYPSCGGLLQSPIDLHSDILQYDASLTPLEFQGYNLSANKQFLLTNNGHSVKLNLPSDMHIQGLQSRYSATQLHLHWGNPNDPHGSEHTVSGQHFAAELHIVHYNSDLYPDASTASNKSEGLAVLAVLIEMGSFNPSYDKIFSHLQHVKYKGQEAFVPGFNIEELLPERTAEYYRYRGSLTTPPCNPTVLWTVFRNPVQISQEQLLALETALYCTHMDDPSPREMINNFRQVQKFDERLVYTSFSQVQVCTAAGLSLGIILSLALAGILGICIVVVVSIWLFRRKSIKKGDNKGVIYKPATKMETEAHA
Chain of Carbonic anhydrase 1 (P00915 whole entry): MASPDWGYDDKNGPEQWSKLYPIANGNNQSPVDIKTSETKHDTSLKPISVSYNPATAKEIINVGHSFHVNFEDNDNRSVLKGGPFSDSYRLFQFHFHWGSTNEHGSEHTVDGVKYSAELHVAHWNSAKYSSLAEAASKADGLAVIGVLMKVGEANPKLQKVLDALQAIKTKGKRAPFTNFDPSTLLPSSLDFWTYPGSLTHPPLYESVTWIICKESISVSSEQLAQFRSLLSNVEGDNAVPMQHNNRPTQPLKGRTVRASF

Row | SMILES | Ki [1] [nM] | Ki [2] [nM] | Ki [3] [nM] | Ki [4] [nM] | Ki [5] [nM] | Ki [6] [nM] | Ki [7] [nM] | Ki [8] [nM] | Ki [9] [nM] | Ki [10] [nM]
1 | NS(=O)(=O)c1cc(Cl)c(Cl)c(S(N)(=O)=O)c1 [Dichlorophenamide, DCP] | 340 |  |  |  |  |  |  |  |  | 
2 | CC1(C)[C@@H](O)C[C@H]2[C@](C)(O)[C@@H]3CCC4[C@@H](O)C3(C[C@@H](O)[C@@]21O)C[C@@]4(C)O (stereo partly specified) [Grayanotoxin III (GTX3)] | 1470 | 8010 | 2150 | 690 | 6130 | 760 | 510 | 1140 | 740 | 860
